Measurements published in patent publication US5438052A, “Cephalosporin derivatives” (Hoffmann-La Roche Inc., priority 1991, dated 1995).
Values after ≈ are worked out from the molar mass of the structure shown. Where a name gives a salt, the structure may show the parent alone. Read-outs that look alike come from different tables or passages of the source.

Key:
[1] = test system: C. freundii 902; assay: Minimum inhibitory concentration in vitro, agar dilution method; assay type: cell-based; conditions: Citrobacter freundii
Text: (§1) 1. Minimum Inhibitory Concentration in vitro
(§2) The activities ascertained, minimum inhibitory concentration (MIC) in μg/ml, are compiled in Table 1 hereinafter: […]

[2] = test system: E. cloacae 908R; assay: as above; assay type: cell-based; conditions: Enterobacter cloacae
Text: as §1, §2

[3] = test system: E. cloacae 908SSi; assay: as above; assay type: cell-based; conditions: Enterobacter cloacae
Text: as §1, §2

[4] = test system: E. cloacae P99; assay: as above; assay type: cell-based; conditions: Enterobacter cloacae
Text: as §1, §2

[5] = test system: E. coli 25922; assay: as above; assay type: cell-based; conditions: Escherichia coli
Text: as §1, §2

[6] = test system: K. oxytoca 1082; assay: as above; assay type: cell-based; conditions: Klebsiella oxytoca
Text: as §1, §2

[7] = test system: K. pneumoniae 418; assay: as above; assay type: cell-based; conditions: Klebsiella pneumoniae
Text: as §1, §2

[8] = test system: P. aeruginosa 27853; assay: as above; assay type: cell-based; conditions: Pseudomonas aeruginosa
Text: as §1, §2

[9] = test system: P. aeruginosa 799/61; assay: as above; assay type: cell-based; conditions: Pseudomonas aeruginosa
Text: as §1, §2

[10] = test system: P. aeruginosa 799/WT; assay: as above; assay type: cell-based; conditions: Pseudomonas aeruginosa
Text: as §1, §2

[11] = test system: P. aeruginosa BA; assay: as above; assay type: cell-based; conditions: Pseudomonas aeruginosa
Text: as §1, §2

[12] = test system: P. aeruginosa MK1184; assay: as above; assay type: cell-based; conditions: Pseudomonas aeruginosa
Text: as §1, §2

[13] = test system: P. mirabilis 2117; assay: as above; assay type: cell-based; conditions: Proteus mirabilis
Text: as §1, §2

[14] = test system: P. vulgaris 1028; assay: as above; assay type: cell-based; conditions: Proteus vulgaris
Text: as §1, §2

[15] = test system: S. aureus 6538; assay: as above; assay type: cell-based; conditions: Staphylococcus aureus
Text: as §1, §2

[16] = test system: S. marcescens 69438; assay: as above; assay type: cell-based; conditions: Serratia marcescens
Text: as §1, §2

[17] = test system: S. pneumoniae BA; assay: as above; assay type: cell-based; conditions: Streptococcus pneumoniae
Text: as §1, §2

[18] = test system: S. pyogenes 15; assay: as above; assay type: cell-based; conditions: Streptococcus pyogenes
Text: as §1, §2

[19] = test system: E. coli 25922; assay: Experimental systemic septicaemia in the mouse; assay type: in vivo; conditions: 96 h
Method: (§3) 2. Experimental systemic septicaemia in the mouse
(§4) An experimental systemic septicaemia was produced in albino mice weighing 16-20 g by intraperitoneally injecting into the experimental animals a sample of a dilute culture of the test organism which had been grown overnight. The sample administered is calculated such that the dosage administered is about 5-100 times greater than the dosage which is required to kill 50% of untreated experimental animals within 48 hours. The bacteria were injected as a suspension in the culture broth. Groups of 5 experimental animals each were used not only for the control, but also for the treatment for each dosage tested. The products in accordance with the invention were administered subcutaneously as a suspension in Tween 80 (2%), whereby the concentrations were chosen such that each experimental animal received 500 μl per administration. The respective concentrations were administered twice, namely 1 and 3 hours after the infection (in the case of P. aeruginosa three times, namely 1, 3 and 5 hours after the infection). The ED50 is that dosage which protects 50% of the experimental animals and was calculated by means of the Probit method on the basis of the survial rate after 4 days following the infection. The ED50 values in mg/kg s.c. (subcutaneous) for representatives of the class of substance in accordance with the invention are given in Table 2 hereinafter.

[20] = test system: Pseudomonas aeruginosa BA; assay: Experimental systemic septicaemia in the mouse; assay type: in vivo; conditions: sc, 96 h
Method: as §3, §4

[21] = C. freundii 902, agar dilution, read-out: MIC
[22] = E. cloacae 908R, agar dilution, read-out: MIC
[23] = E. cloacae 908SSi, agar dilution, read-out: MIC
[24] = E. coli 25922, agar dilution, read-out: MIC
[25] = K. oxytoca 1082, agar dilution, read-out: MIC
[26] = K. pneumoniae 418, agar dilution, read-out: MIC
[27] = P. aeruginosa 27853, agar dilution, read-out: MIC
[28] = P. aeruginosa 799/61, agar dilution, read-out: MIC
[29] = P. aeruginosa 799/WT, agar dilution, read-out: MIC
[30] = P. aeruginosa BA, agar dilution, read-out: MIC
[31] = P. aeruginosa MK1184, agar dilution, read-out: MIC
[32] = P. mirabilis 2117, agar dilution, read-out: MIC
[33] = P. vulgaris 1028, agar dilution, read-out: MIC
[34] = S. aureus 6538, agar dilution, read-out: MIC
[35] = S. marcescens 69438, agar dilution, read-out: MIC
[36] = S. pneumoniae BA, agar dilution, read-out: MIC
[37] = S. pyogenes 15, agar dilution, read-out: MIC
[38] = Escherichia coli, sc, E. coli 25922, albino mice, s.c. 1 and 3 hours after infection, survival after 4 days, read-out: ED50
[39] = P. aeruginosa BA, albino mice, s.c. 1, 3 and 5 hours after infection, survival after 4 days, read-out: ED50

Structure (SMILES) | MIC [1, 21] | MIC [2, 22] | MIC [3, 23] | MIC [4] | MIC [5, 24] | MIC [6, 25] | MIC [7, 26] | MIC [8, 27] | MIC [9, 28] | MIC [10, 29] | MIC [11, 30] | MIC [12, 31] | MIC [13, 32] | MIC [14, 33] | MIC [15, 34] | MIC [16, 35] | MIC [17, 36] | MIC [18, 37] | ED50 [19, 38] | ED50 [20, 39] | also measured
CC(C)(O/N=C(\C(=O)N[C@@H]1C(=O)N2C(C(=O)O)=C(CS(=O)(=O)c3ccc(O)c(O)c3)CS[C@H]12)c1csc(N)n1)C(=O)NNC(=O)c1ccc(O)c(O)c1 [Example 47, (6R,7R)-7-[(Z)-2-(2-amino-4-thiazolyl)-2-[[1-[3-(3,4-dihydroxybenzoyl)carbazoyl]-1-methylethoxy]imino]acetamido]-3-[[(3,4-dihydroxyphenyl)sulphonyl]methyl]-8-oxo-5-thia-1-azabicyclo[4.2.0]oct-2-ene-2-carboxylic acid] | 0.5 µg/mL (≈ 0.631 µM) | 1 µg/mL (≈ 1.26 µM) | 8 µg/mL (≈ 10.1 µM) | 16 µg/mL (≈ 20.2 µM) | 0.12 µg/mL (≈ 0.152 µM) | 0.25 µg/mL (≈ 0.316 µM) | < 0.1 µg/mL | 4 µg/mL (≈ 5.05 µM) | 0.25 µg/mL (≈ 0.316 µM) | 4 µg/mL (≈ 5.05 µM) | 4 µg/mL (≈ 5.05 µM) | > 32 µg/mL | 0.12 µg/mL (≈ 0.152 µM) | 0.25 µg/mL (≈ 0.316 µM) | 32 µg/mL (≈ 40.4 µM) | 0.25 µg/mL (≈ 0.316 µM) | 1 µg/mL (≈ 1.26 µM) | 1 µg/mL (≈ 1.26 µM) | < 0.1 mg/kg | 0.1 mg/kg | –
CC(C)(O/N=C(\C(=O)N[C@@H]1C(=O)N2C(C(=O)O)=C(CS(=O)(=O)c3ccc(O)c(O)c3)CS[C@H]12)c1csc(N)n1)C(=O)NO [Example 21, (6R,7R)-7-[(Z)-2-(2-amino-4-thiazolyl)-2-[[(1-hydroxycarbamoyl)-1-methylethoxy]imino]acetamido]-3-[[(3,4-dihydroxyphenyl)sulphonyl]methyl]-8-oxo-5-thia-1-azabicyclo[4.2.0]oct-2-ene-2-carboxylic acid] | 4 µg/mL (≈ 6.09 µM) | 8 µg/mL (≈ 12.2 µM) | 8 µg/mL (≈ 12.2 µM) | 16 µg/mL (≈ 24.4 µM) | 1 µg/mL (≈ 1.52 µM) | 1 µg/mL (≈ 1.52 µM) | 0.5 µg/mL (≈ 0.761 µM) | 8 µg/mL (≈ 12.2 µM) | 0.25 µg/mL (≈ 0.381 µM) | 8 µg/mL (≈ 12.2 µM) | 8 µg/mL (≈ 12.2 µM) | > 32 µg/mL | 1 µg/mL (≈ 1.52 µM) | 2 µg/mL (≈ 3.05 µM) | > 32 µg/mL | 1 µg/mL (≈ 1.52 µM) | 8 µg/mL (≈ 12.2 µM) | 16 µg/mL (≈ 24.4 µM) | < 0.3 mg/kg | 0.39 mg/kg | –
Nc1nc(/C(=N/OCS(=O)(=O)c2ccc(O)c(O)c2)C(=O)N[C@@H]2C(=O)N3C(C(=O)O)=C(CS(=O)(=O)c4ccc(O)c(O)c4)CS[C@H]23)cs1 [Example 22, (6R,7R)-7-[(Z)-2-(2-amino-4-thiazolyl)-2-[[(3,4-dihydroxysulphonyl)methoxy]imino]acetamido]-3-[[(3,4-dihydroxyphenyl)sulphonyl]methyl]-8-oxo-5-thia-1-azabicyclo[4.2.0]oct-2-ene-2-carboxylic acid sodium salt] | 16 µg/mL | 32 µg/mL | 16 µg/mL | 32 µg/mL | 8 µg/mL | 0.5 µg/mL | 0.5 µg/mL | 32 µg/mL | 0.25 µg/mL | 16 µg/mL | > 32 µg/mL | > 32 µg/mL | 16 µg/mL | 16 µg/mL | > 32 µg/mL | 16 µg/mL | 16 µg/mL | 16 µg/mL | < 0.05 mg/kg | 1.8 mg/kg | –
Cc1cc(SCC2=C(C(=O)[O-])N3C(=O)[C@@H](NC(=O)/C(=N\OCS(=O)(=O)c4ccc(O)c(O)c4)c4csc(N)n4)[C@H]3SC2)n2nc(CNS(=O)(=O)c3ccc(O)c(O)c3)nc2n1.[Na+] [Example 3, (6R,7R)-7-[(Z)-2-(2-amino-4-thiazolyl)-2-[[[(3,4-dihydroxyphenyl)sulphonyl]methoxy]imino]acetamido]-3-[[[2-[(3,4-dihydroxybenzenesulphonamido)methyl]-5-methyl-s-triazolo[1,5-a]pyrimidin-7-yl]thio]methyl]-8-oxo-5-thia-1-azabicyclo[4.2.0]oct-2-ene-2-carboxylic acid sodium salt (1:1)] | – | – | – | 0.5 µg/mL | – | – | – | – | – | – | – | – | – | – | – | – | – | – | – | – | MIC [1]; 902: 0.12 µg/mL; MIC ([2]; 908R): 1 µg/mL; MIC ([3]; 908SSI): 8 µg/mL; MIC [5]; 25922: < 0.1 µg/mL; MIC [6]; 1082: 0.25 µg/mL; MIC [7]; 418: < 0.1 µg/mL; MIC [8]; 27853: 0.25 µg/mL; MIC ([9]; 799/61): < 0.1 µg/mL; MIC ([10]; 799/WT): 0.12 µg/mL; MIC [11]: < 0.1 µg/mL; MIC ([12]; MK1184): < 0.1 µg/mL; MIC [13]; 2117: < 0.1 µg/mL; MIC [14]; 1028: < 0.1 µg/mL; MIC [15]; 6538: 32 µg/mL; MIC [16]; 69438: 0.12 µg/mL; MIC [17]: 2 µg/mL; MIC [18]; 15: 4 µg/mL; ED50 ([19]; Escherichia coli, 25922, sc): 0.1 mg/kg; ED50 [20]: 0.04 mg/kg
Cc1cc(SCC2=C(C(=O)[O-])N3C(=O)[C@@H](NC(=O)/C(=N\OCS(=O)(=O)c4ccc(O)c(O)c4)c4csc(N)n4)[C@H]3SC2)n2nc(COC(=O)c3ccc(O)c(O)c3)nc2n1.[Na+] [Example 7, (6R,7R)-7-[(Z)-2-(2-amino-4-thiazolyl)-2-[[[(3,4-dihydroxyphenyl)sulphonyl]methoxy]imino]acetamido]-3-[[[2-[[(3,4-dihydroxybenzoyl)oxy]methyl]-5-methyl-s-triazolo[1,5-a]pyrimidin-7-yl]thio]methyl]-8-oxo-5-thia-1-azabicyclo[4.2.0]oct-2-ene-2-carboxylic acid sodium salt (1:1)] | – | – | – | 1 µg/mL | – | – | – | – | – | – | – | – | – | – | – | – | – | – | – | – | MIC [1]; 902: 0.12 µg/mL; MIC ([2]; 908R): 2 µg/mL; MIC ([3]; 908SSI): 4 µg/mL; MIC [5]; 25922: < 0.1 µg/mL; MIC [6]; 1082: < 0.1 µg/mL; MIC [7]; 418: < 0.1 µg/mL; MIC [8]; 27853: 1 µg/mL; MIC ([9]; 799/61): 0.25 µg/mL; MIC ([10]; 799/WT): 0.5 µg/mL; MIC [11]: 0.12 µg/mL; MIC ([12]; MK1184): < 0.1 µg/mL; MIC [13]; 2117: 0.12 µg/mL; MIC [14]; 1028: 0.12 µg/mL; MIC [15]; 6538: 32 µg/mL; MIC [16]; 69438: 0.12 µg/mL; MIC [17]: 2 µg/mL; MIC [18]; 15: 4 µg/mL; ED50 ([19]; Escherichia coli, 25922, sc): < 0.3 mg/kg; ED50 [20]: 0.08 mg/kg
